Laboratory results: paper PMC8835841, “Novel NK1R-Targeted ^68Ga-/^177Lu-Radioconjugates with Potential Application against Glioblastoma Multiforme: Preliminary Exploration of Structure–Activity Relationships” (International Journal of Molecular Sciences, 2022)

Legend:
rNK1R = target: T1, rNK1R (Rattus norvegicus, UniProt P14600); test: Competitive radioligand binding assay, rat brain homogenates, [3H]-(Sar9,Met(O2)11)-Substance P; conditions: mean of three independent experiments in duplicate unless stated; for IC50: read-out: IC50 (Mean ± SD) rNK1R
T1 construct: As a source of the receptor proteins, homogenates obtained from rat brains; from tissue; host or cells: rat brain homogenate
T1 sequence (P14600 whole entry): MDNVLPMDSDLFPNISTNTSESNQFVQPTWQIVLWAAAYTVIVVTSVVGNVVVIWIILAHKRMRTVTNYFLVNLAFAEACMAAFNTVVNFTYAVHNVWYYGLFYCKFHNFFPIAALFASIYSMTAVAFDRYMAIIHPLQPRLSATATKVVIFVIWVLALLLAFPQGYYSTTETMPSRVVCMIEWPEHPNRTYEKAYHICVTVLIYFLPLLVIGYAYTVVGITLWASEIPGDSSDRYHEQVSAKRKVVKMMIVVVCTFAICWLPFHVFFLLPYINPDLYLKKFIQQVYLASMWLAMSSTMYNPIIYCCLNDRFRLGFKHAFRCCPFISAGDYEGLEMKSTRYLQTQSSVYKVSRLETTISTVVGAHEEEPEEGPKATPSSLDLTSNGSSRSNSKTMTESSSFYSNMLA
Protocol: (§1) The binding affinity of the tested compounds for human and rat NK1R was determined in competitive radioligand binding assays following the method previously described. As a source of the receptor proteins, homogenates obtained from rat brains (obtained as described in Ref [30]) or homogenates made from hNK1-CHO cells were used. […] The final reaction volumes were 250 μL and 1 mL, for the human and rat NK1R determinations, respectively. […] The binding reaction mixtures were incubated in a shaking water bath at 25 °C for 60 min. The reaction was terminated by rapid filtration through Whatman GF/B filter (Gaithersburg, MD) presoaked in 0.5% polyethyleneimine and washed three times with 2 mL of cold saline. The filters were placed in 24-well plates and immersed in a Betaplate Scint scintillation solution (Perkin Elmer, Waltham, MA, USA). The filter-bound radioactivity was determined by scintillation counter MicroBeta LS, Trilux (PerkinElmer, Waltham, MA, USA).
(§2) The displacement curves were drawn and the mean IC50 values were determined with standard deviations (GraphPad Prism version 8.0, San Diego, CA, USA). At least three independent experiments (carried out in duplicate) were performed.

hNK1R = target: T2, hNK1R (Homo sapiens, UniProt P25103); test: Competitive radioligand binding assay, hNK1-CHO cell homogenates, [3H]-(Sar9,Met(O2)11)-Substance P; conditions: for IC50: hNK1-CHO cell homogenates, mean of three independent experiments in duplicate unless stated, read-out: IC50 (Mean ± SD) hNK1R; for fold weaker hNK1R binding than parent compound: relative to L732,138 (1c)
T2 construct: expressed in transfected cells; host or cells: CHO-K1 (hNK1-CHO), gift from Dr. Attila Keresztes and Dr. John M. Streicher
T2 sequence (P25103 whole entry): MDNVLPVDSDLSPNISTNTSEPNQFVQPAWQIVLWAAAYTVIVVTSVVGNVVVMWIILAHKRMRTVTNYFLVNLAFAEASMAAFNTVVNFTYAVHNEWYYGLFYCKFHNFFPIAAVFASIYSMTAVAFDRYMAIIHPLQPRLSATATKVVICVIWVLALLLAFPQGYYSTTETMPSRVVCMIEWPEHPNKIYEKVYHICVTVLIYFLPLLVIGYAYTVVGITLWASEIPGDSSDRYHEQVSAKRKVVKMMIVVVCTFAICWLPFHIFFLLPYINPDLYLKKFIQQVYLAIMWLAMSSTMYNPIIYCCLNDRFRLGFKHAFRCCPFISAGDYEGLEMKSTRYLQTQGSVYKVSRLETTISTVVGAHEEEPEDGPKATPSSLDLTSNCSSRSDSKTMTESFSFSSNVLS
Protocol: The CHO-K1 cells with a stable overexpression of the human NK1 receptor, denoted further on as hNK1-CHO cells, were obtained as a gift from Dr. Attila Keresztes and Dr. John M. Streicher. The cells were maintained in a humidified atmosphere with 5% CO2 at 37 °C, in Ham’s F12 medium (Corning, Corning, NY, USA) supplemented with 10% Foetal Bovine Serum (CytoGen, Wetzlar, Germany) and 400 μg/mL G418 (Corning, Corning, NY, USA).
When the cells reached approximately 90% confluence, they were harvested by treatment with 0.05% trypsin/EDTA (Corning, Corning, NY, USA). After centrifugation at 1500 rpm for 5 min, the cells were homogenized in a glass tissue homogenizer in ice-cold 50 mM Tris-HCl buffer (pH 7.4) with 5 mM MnCl2. The preparation was collected by centrifugation at 13,000 rpm for 25 min at 4 °C, and then the pellet was suspended in 50 mM Tris-HCl buffer. The homogenates were stored at −80 °C for later use. The BCA assay (Thermo Scientific, Waltham, MA, USA) was used to determine the protein concentration in the homogenates.
as §1, §2

physchem = format: physicochemical
Protocol: A lipophilicity study was also performed right after the SPE method purification and ethanol evaporation. For each DOTA radioconjugate, the lipophilicity value was estimated as the logarithm of the distribution coefficient (D) based on the ratio of the radioactivity of the organic phase to the radioactivity of the aqueous phase in the n-octanol/PBS (pH 7.40) system. Simultaneously, the stability of the studied radioconjugate during the experiment was verified through the HPLC analysis of the aqueous phase.
A solution of isolated radioconjugate (approximately 0.5 MBq for ^177Lu-radioconjugates or 5 MBq for ^68Ga-radioconjugates) in 500 µL of 0.1 M PBS buffer (pH 7.40) and 500 µL of n-octanol was vigorously stirred and centrifuged (13,500 rpm for 5 min) to separate the immiscible phases. Then, the radioactivity of samples from both phases were measured using a well-type NaI(Tl) detector. The distribution coefficient, D, was calculated dividing the radioactivity of the radioconjugate in the organic phase to that in the aqueous phase. Each experiment was performed in triplicate and averaged. In parallel, the aqueous phases were analysed by HPLC to confirm the stability of studied radioconjugate during the experiment period. The lipophilicity value of each radioconjugates was expressed as the logarithm of its D value.

[1] = pH 7.4, logD7.4 (Mean ± SD) 177Lu-
[2] = pH 7.4, logD7.4 (Mean ± SD) 68Ga-

| SMILES | IC50 (rNK1R) | IC50 (hNK1R) | also measured |
| --- | --- | --- | --- |
| CC(C)(C)OC(=O)N[C@@H](Cc1c[nH]c2ccccc12)C(=O)OCc1cc(C(F)(F)F)cc(C(F)(F)F)c1 [Compound 1a, 3,5-bis(trifluoromethyl)benzyl (tert-butoxycarbonyl)-L-tryptophanate] | 2930 ± 1520 nM | 180 ± 112 nM | fold weaker hNK1R binding than parent compound (hNK1R): 7 × |
| CC(C)(C)OC(=O)NCCCCCC(=O)NCCCCCC(=O)N[C@@H](Cc1c[nH]c2ccccc12)C(=O)OCc1cc(C(F)(F)F)cc(C(F)(F)F)c1 [Compound 5a, 3,5-bis(trifluoromethyl)benzyl (6-(6-((tert-butoxycarbonyl)amino)hexanamido)hexanoyl)-L-tryptophanate] | 762 ± 295 nM | 4.5 ± 2.8 nM | IC50 (Mean ± SD) rNK1R (rNK1R): submicromolar |
| O=C(O)CN1CCN(CC(=O)O)CCN(CC(=O)NCCCCCC(=O)N[C@@H](Cc2c[nH]c3ccccc23)C(=O)OCc2cc(C(F)(F)F)cc(C(F)(F)F)c2)CCN(CC(=O)O)CC1 [[^177Lu]Lu-4d, metal not drawn] | – | – | logD (physchem; [1]): 0.866 ± 0.019 |
| C[C@@H](NC(=O)CN1CCN(CC(=O)O)CCN(CC(=O)O)CCN(CC(=O)O)CC1)C(=O)N[C@@H](Cc1c[nH]c2ccccc12)C(=O)OCc1cc(C(F)(F)F)cc(C(F)(F)F)c1 [[^177Lu]Lu-2d, metal not drawn] | – | – | logD (physchem; [1]): 0.704 ± 0.005 |
| C[C@@H](NC(=O)CN1CCN(CC(=O)O)CCN(CC(=O)O)CCN(CC(=O)O)CC1)C(=O)N[C@H](C)C(=O)N[C@@H](Cc1c[nH]c2ccccc12)C(=O)OCc1cc(C(F)(F)F)cc(C(F)(F)F)c1 [[^177Lu]Lu-3d, metal not drawn] | – | – | logD (physchem; [1]): 0.619 ± 0.007 |
| C[C@@H](NC(=O)OC(C)(C)C)C(=O)N[C@H](C)C(=O)N[C@@H](Cc1c[nH]c2ccccc12)C(=O)OCc1cc(C(F)(F)F)cc(C(F)(F)F)c1 [Compound 3a, 3,5-bis(trifluoromethyl)benzyl (tert-butoxycarbonyl)-D-alanyl-D-alanyl-L-tryptophanate] | 745 ± 311 nM | 13.9 ± 11.2 nM | IC50 (Mean ± SD) rNK1R (rNK1R): submicromolar |
| CC(C)(C)OC(=O)NCCCCCC(=O)N[C@@H](Cc1c[nH]c2ccccc12)C(=O)OCc1cc(C(F)(F)F)cc(C(F)(F)F)c1 [Compound 4a, 3,5-bis(trifluoromethyl)benzyl (6-((tert-butoxycarbonyl)amino)hexanoyl)-L-tryptophanate] | 1660 ± 1050 nM | 60.7 ± 31.9 nM | – |
| CC(=O)NCCCCCC(=O)N[C@@H](Cc1c[nH]c2ccccc12)C(=O)OCc1cc(C(F)(F)F)cc(C(F)(F)F)c1 [Compound 4c, 3,5-bis(trifluoromethyl)benzyl (6-acetamidohexanoyl)-L-tryptophanate] | 1950 ± 641 nM | 83.1 ± 69.3 nM | – |
| C[C@@H](NC(=O)CN1CCN(CC(=O)O)CCN(CC(=O)O)CCN(CC(=O)O)CC1)C(=O)N[C@@H](Cc1c[nH]c2ccccc12)C(=O)OCc1cc(C(F)(F)F)cc(C(F)(F)F)c1 [[^68Ga]Ga-2d, metal not drawn] | – | – | logD (physchem; [2]): -0.06 ± 0.02 |
| O=C(O)CN1CCN(CC(=O)O)CCN(CC(=O)NCCCCCC(=O)NCCCCCC(=O)N[C@@H](Cc2c[nH]c3ccccc23)C(=O)OCc2cc(C(F)(F)F)cc(C(F)(F)F)c2)CCN(CC(=O)O)CC1 [[^68Ga]Ga-5d, metal not drawn] | – | – | logD (physchem; [2]): -0.466 ± 0.016 |
| C[C@@H](NC(=O)CN1CCN(CC(=O)O)CCN(CC(=O)O)CCN(CC(=O)O)CC1)C(=O)N[C@H](C)C(=O)N[C@@H](Cc1c[nH]c2ccccc12)C(=O)OCc1cc(C(F)(F)F)cc(C(F)(F)F)c1 [[^68Ga]Ga-3d, metal not drawn] | – | – | logD (physchem; [2]): -0.259 ± 0.017 |
| O=C(O)CN1CCN(CC(=O)O)CCN(CC(=O)NCCCCCC(=O)N[C@@H](Cc2c[nH]c3ccccc23)C(=O)OCc2cc(C(F)(F)F)cc(C(F)(F)F)c2)CCN(CC(=O)O)CC1 [Compound 4d] | – | 8.7 ± 3.2 nM | – |
| CC(=O)N[C@H](C)C(=O)N[C@@H](Cc1c[nH]c2ccccc12)C(=O)OCc1cc(C(F)(F)F)cc(C(F)(F)F)c1 [Compound 2c, 3,5-bis(trifluoromethyl)benzyl acetyl-D-alanyl-L-tryptophanate] | 2280 ± 703 nM | 25.3 ± 0.4 nM | – |
| C[C@@H](NC(=O)OC(C)(C)C)C(=O)N[C@@H](Cc1c[nH]c2ccccc12)C(=O)OCc1cc(C(F)(F)F)cc(C(F)(F)F)c1 [Compound 2a, 3,5-bis(trifluoromethyl)benzyl (tert-butoxycarbonyl)-D-alanyl-L-tryptophanate] | 1530 ± 279 nM | 135 ± 108 nM | – |

Now from value to compound, other results behind:

| IC50 (rNK1R) | IC50 (hNK1R) | SMILES | also measured |
| --- | --- | --- | --- |
| 112 ± 3 nM | 5.1 ± 2 nM | O=C(O)CN1CCN(CC(=O)O)CCN(CC(=O)N[C@@H](Cc2c[nH]c3ccccc23)C(=O)OCc2cc(C(F)(F)F)cc(C(F)(F)F)c2)CCN(CC(=O)O)CC1 [Ga-1d] | – |
| 1400 ± 319 nM | 35.4 ± 23.6 nM | NCCCCCC(=O)N[C@@H](Cc1c[nH]c2ccccc12)C(=O)OCc1cc(C(F)(F)F)cc(C(F)(F)F)c1 [Compound 4b, (S)-6-((1-((3,5-bis(trifluoromethyl)benzyl)oxy)-3-(1H-indol-3-yl)-1-oxopropan-2-yl)amino)-6-oxohexan-1-aminium 2,2,2-trifluoroacetate] | – |
| 572 ± 41 nM | 20.4 ± 10.2 nM | NCCCCCC(=O)NCCCCCC(=O)N[C@@H](Cc1c[nH]c2ccccc12)C(=O)OCc1cc(C(F)(F)F)cc(C(F)(F)F)c1.O=C(O)C(F)(F)F [Compound 5b, (S)-6-((6-((1-((3,5-bis(trifluoromethyl)benzyl)oxy)-3-(1H-indol-3-yl)-1-oxopropan-2-yl)amino)-6-oxohexyl)amino)-6-oxohexan-1-aminium 2,2,2-trifluoroacetate] | IC50 (Mean ± SD) rNK1R (rNK1R): submicromolar |
| 4680 ± 1320 nM | 25.4 ± 12.5 nM | C[C@@H](N)C(=O)N[C@@H](Cc1c[nH]c2ccccc12)C(=O)OCc1cc(C(F)(F)F)cc(C(F)(F)F)c1 [Compound 2b, (R)-1-(((S)-1-((3,5-bis(trifluoromethyl)benzyl)oxy)-3-(1H-indol-3-yl)-1-oxopropan-2-yl)amino)-1-oxopropan-2-aminium 2,2,2-trifluoroacetate] | – |
| 1140 ± 289 nM | 13.5 ± 12.1 nM | CC(=O)N[C@H](C)C(=O)N[C@H](C)C(=O)N[C@@H](Cc1c[nH]c2ccccc12)C(=O)OCc1cc(C(F)(F)F)cc(C(F)(F)F)c1 [Compound 3c, 3,5-bis(trifluoromethyl)benzyl acetyl-D-alanyl-D-alanyl-L-tryptophanate] | – |
| 655 ± 120 nM | 14.3 ± 5.2 nM | CC(=O)NCCCCCC(=O)NCCCCCC(=O)N[C@@H](Cc1c[nH]c2ccccc12)C(=O)OCc1cc(C(F)(F)F)cc(C(F)(F)F)c1 [Compound 5c, 3,5-bis(trifluoromethyl)benzyl (6-(6-acetamidohexanamido)hexanoyl)-L-tryptophanate] | IC50 (Mean ± SD) rNK1R (rNK1R): submicromolar |
| > 10000 nM | 359 ± 132 nM | N[C@@H](Cc1c[nH]c2ccccc12)C(=O)OCc1cc(C(F)(F)F)cc(C(F)(F)F)c1.O=C(O)C(F)(F)F [Compound 1b, (S)-1-((3,5-bis(trifluoromethyl)benzyl)oxy)-3-(1H-indol-3-yl)-1-oxopropan-2-aminium 2,2,2-trifluoroacetate] | fold weaker hNK1R binding than parent compound (hNK1R): 14 × |
| 4010 ± 1370 nM | 80.8 ± 59.7 nM | C[C@@H](N)C(=O)N[C@H](C)C(=O)N[C@@H](Cc1c[nH]c2ccccc12)C(=O)OCc1cc(C(F)(F)F)cc(C(F)(F)F)c1 [Compound 3b, (R)-1-(((R)-1-(((S)-1-((3,5-bis(trifluoromethyl)benzyl)oxy)-3-(1H-indol-3-yl)-1-oxopropan-2-yl)amino)-1-oxopropan-2-yl)amino)-1-oxopropan-2-aminium 2,2,2-trifluoroacetate] | – |
